The test system of data set [1] is Oncorhynchus mykiss. The note with it: acute; duration: 96 hours; mortality.
The subject of data set [2] is Colinus virginianus. The note with it: acute; oral; diet; mortality.
Data set [3] concerns Tagia sp. The note with it: acute; duration: 14 days; mortality.
Data set [4] concerns Oryctolagus sp. The note with it: reproduction developmental; body weight.
In data set [5] the test system is Anas platyrhynchos. Particulars: oral, mortality.
Data set [6] concerns Pimephales promelas. Particulars: chronic/long-term; duration: 21 days; growth.
In data set [7] the test system is Rattus norvegicus.
Data set [8] deals with Bibionidae. The note with it: chronic/long-term; duration: 28 days.

In brackets after ≈: the same amount, converted by molar mass. Some results are limits rather than exact numbers.

Broadly, the NOAEL is the highest dose or exposure tested at which no adverse effect was seen. In the case of `Oc1ccccc1-c1ccccc1` [2-Phenylphenol], the LC50 is 4 µg/mL (≈ 23.5 µM) in data set [1]; above 2810 mg/kg-day in data set [2]; 198 mg/kg in data set [3]; above 1900 mg/kg-day in data set [5] (short-term, feed). Further, the NOAEL in data set [4] worked out at 100 mg/kg-day; in data set [7] (chronic, duration: 2 years, oral, Fischer 344, histopathology: neoplastic), 39 mg/kg-day; in data set [7] (reproduction developmental), 500 mg/kg-day. Further, the LD50 in data set [5] (acute, unspecified) was above 2250 mg/kg-day; in data set [7] (acute, oral, mortality), 2730 mg/kg-day. The results for the NOEC in data set [6] and in data set [8] were 0.036 mg/L and 1.85 mg/L, respectively.
